Values quoted from earlier work, collected in patent publication US12502358B1, “Centanafadine multiphasic controlled-release pharmaceutical formulation” (Innovate Therapeutics LLC, priority 2024, dated 2025).

Legend:
[1] = per BCS classification
[2] = target: norepinephrine reuptake transporter (NET) (Homo sapiens, UniProt P23975); settings: rank among NET, DAT, SERT
[3] = target: serotonin reuptake transporter (SERT) (Homo sapiens, UniProt P31645); settings: fraction of the potency towards NET
[4] = target: dopamine reuptake transporter (DAT) (Homo sapiens, UniProt Q01959); settings: fraction of the potency towards NET
Chain of dopamine reuptake transporter (DAT) (Q01959 whole entry, species assumed): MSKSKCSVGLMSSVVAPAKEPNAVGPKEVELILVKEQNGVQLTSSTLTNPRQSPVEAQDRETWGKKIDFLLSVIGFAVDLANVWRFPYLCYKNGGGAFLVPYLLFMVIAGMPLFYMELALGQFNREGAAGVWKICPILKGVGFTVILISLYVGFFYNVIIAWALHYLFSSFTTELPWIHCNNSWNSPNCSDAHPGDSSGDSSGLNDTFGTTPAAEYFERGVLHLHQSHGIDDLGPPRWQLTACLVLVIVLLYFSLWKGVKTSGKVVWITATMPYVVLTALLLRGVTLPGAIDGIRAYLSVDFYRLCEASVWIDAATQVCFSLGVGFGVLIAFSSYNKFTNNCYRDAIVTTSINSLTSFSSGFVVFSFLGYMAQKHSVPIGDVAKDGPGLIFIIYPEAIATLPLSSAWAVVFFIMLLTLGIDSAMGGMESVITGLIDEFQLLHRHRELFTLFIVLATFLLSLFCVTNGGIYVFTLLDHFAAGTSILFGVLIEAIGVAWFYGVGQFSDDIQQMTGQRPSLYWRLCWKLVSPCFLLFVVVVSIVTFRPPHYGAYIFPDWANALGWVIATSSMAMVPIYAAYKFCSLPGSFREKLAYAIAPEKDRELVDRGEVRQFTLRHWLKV

Chain of serotonin reuptake transporter (SERT) (P31645 whole entry, species assumed): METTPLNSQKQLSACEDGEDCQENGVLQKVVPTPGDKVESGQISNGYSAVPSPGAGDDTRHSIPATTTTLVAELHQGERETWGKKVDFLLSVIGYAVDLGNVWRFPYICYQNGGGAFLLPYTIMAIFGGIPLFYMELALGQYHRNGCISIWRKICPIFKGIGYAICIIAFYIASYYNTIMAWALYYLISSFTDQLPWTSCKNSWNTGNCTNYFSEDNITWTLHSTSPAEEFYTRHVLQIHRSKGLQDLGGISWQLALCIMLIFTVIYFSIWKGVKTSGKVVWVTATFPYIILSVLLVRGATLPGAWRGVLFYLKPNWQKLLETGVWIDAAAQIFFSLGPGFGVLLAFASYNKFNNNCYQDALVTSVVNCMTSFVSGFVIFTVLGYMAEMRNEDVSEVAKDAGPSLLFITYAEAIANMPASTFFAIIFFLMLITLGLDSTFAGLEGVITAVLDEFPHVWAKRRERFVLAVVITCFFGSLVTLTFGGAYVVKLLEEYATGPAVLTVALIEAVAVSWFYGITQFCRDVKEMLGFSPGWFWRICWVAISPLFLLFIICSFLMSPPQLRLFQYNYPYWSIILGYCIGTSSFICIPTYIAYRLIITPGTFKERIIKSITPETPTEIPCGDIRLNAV
Chain of norepinephrine reuptake transporter (NET) (P23975 whole entry): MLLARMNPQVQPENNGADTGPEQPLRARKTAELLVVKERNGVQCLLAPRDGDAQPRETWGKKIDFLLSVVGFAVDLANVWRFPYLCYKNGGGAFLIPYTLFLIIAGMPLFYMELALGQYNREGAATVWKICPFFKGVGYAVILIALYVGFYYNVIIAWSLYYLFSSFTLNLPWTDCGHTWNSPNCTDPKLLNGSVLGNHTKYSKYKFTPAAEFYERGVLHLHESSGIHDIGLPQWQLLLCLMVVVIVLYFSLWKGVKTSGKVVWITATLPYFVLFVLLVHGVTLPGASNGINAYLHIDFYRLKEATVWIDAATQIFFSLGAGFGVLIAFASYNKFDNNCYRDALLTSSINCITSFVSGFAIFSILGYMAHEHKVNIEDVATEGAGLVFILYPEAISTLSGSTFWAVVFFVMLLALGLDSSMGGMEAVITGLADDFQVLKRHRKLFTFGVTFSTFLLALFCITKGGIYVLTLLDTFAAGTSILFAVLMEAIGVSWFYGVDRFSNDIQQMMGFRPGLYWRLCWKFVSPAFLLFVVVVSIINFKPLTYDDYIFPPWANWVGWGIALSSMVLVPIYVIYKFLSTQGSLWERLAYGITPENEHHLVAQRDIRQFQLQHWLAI

For `c1ccc2cc([C@]34CNC[C@H]3C4)ccc2c1` [Centanafadine, (1R,5S)-1-(naphthalen-2-yl)-3-azabicyclo[3.1.0]hexane], the solubility [1] is listed as “highly soluble”, the “potency towards the norepinephrine reuptake transporter (NET)” value [2] is listed as “most potency” and the “potency towards the serotonin reuptake transporter (SERT) relative to NET” value [3] is listed as “one-fourteenth as much”. The “potency towards the dopamine reuptake transporter (DAT) relative to NET” value [4] was “one-sixth as much”.
